# Measurements taken from US20110172308A1, “Antagonsim of PGF2a Receptor to Treat Hyertension Characterized by Activation of the Renin-Angiotensin-Aldosterone System” (The Trustees of The University of Pennsylvania, priority 2008, published 2011).
# “Also recorded” adds a separate entry of the source.
# Tests used:
# WT and FP knockout mice = assay: Mean arterial blood pressure after bolus of Ang II; format: in vivo, mouse; settings: 50 ng/kg, acute intracarotid infusion, n=7
# Protocol: FIGS. 3A-3C depicts data related to angiotensin II receptor (AT1) expression and blood pressure effects of Ang II injection in WT and FP knockout mice. FIG. 3A depicts AT1a and FIG. 3B depicts AT1b gene expression in aorta by real time RT-PCR. *p<0.01 (n=4) versus WT, repeated 3 times. FIG. 3C depicts blood pressure (BP) after Angiotengin II (Ang II) administration (50 ng/kg) compared with baseline in FP^−/− and WT littermates. Mean arterial BP was monitored in mice by pressure transducer connected to a catheter in left artery. Baseline BP is readout before injection. BP changes are depicted as difference between baseline and after injection at one min intervals. *p<0.01 versus WT, n=8-9.
# Mean Arterial Blood Pressure (BP) Measurements: The right internal jugular vein and left carotid artery of anesthetized mice were cannulated with PE-10 tubing. The arterial catheter was connected to a Capto SP844 pressure transducer, and BP was monitored continuously with a PowerLab/8SP system. […]
# To examine the acute effect of Ang II on blood pressure, WT and FPKO mice were sedated and subjected to a bolus infusion of Ang II. Blood pressure was measured directly using an arterial catheter connected to a pressure transducer. After the equilibration period and the baseline BP was recorded, mice were injected with a bolus of Ang II.
# JG cells = assay: cAMP content in cultured cells rich in JG cells; format: cell-based, mouse; settings: vs vehicle controls
# From the text: (§1) FIGS. 5A-5E depict data related to renin expression resulting from activation of FP or prostacyclin (IP) receptor in in vitro cultures of juxtaglomerular apparatus cells obtained from WT or FP knockout mice. FIG. 5A is a graph depicting the effect of FP agonists Latanoprost (Lata) and Travoprost (Trav), and IP agonist Cicaprost (Cica) on renin mRNA expression in JG enriched cultured cells. Each point represents mean±SEMs of 4 cell groups, repeated 3 times. FIG. 5B is a bar graph illustrating the effect of effect of Latanoprost and Cicaprost on cAMP content in cultured cells rich in JG cells. Data are presented as cAMP fold change from 3-6 independent samples (6-well plate) from 3 independent experiments. *, p<0.05 vs vehicle controls, n=3. FIG. 5C is a graph of the original recording of membrance capacitance in a single mouse JG cell from WT mice. […] FIG. 5E is a graph of whole cell currents were measured in response to 11 pulses from −150 to +90 mV in 30-mV steps for 200 ms from a holding potential of −30 mV. Pulses were applied before and after superfusion with 1 μM Latanoprost. Mean steady-state current-voltage curves from 4 independent experiments before (cycle) and after (square) 20 min of capacitance measurements are given.
# Culture of Juxtaglomerular (JG) cells: JG cells were prepared as described (Fujino et al., 2004, J Clin Invest. 114: 805-812). […]
# [1] = test system: juxtaglomerular (JG) cells; assay: Renin mRNA expression in cultured JG cells treated with prostanoid agonists (real time RT-PCR); format: cell-based, mouse
# Protocol: Culture of Juxtaglomerular (JG) cells: JG cells were prepared as described (Fujino et al., 2004, J Clin Invest. 114: 805-812). The kidneys were removed, decapsulated, minced with a surgical blade, incubated with 0.1% collagenase for 15 minutes at 37° C. and filtered through a 40 μm nylon mesh. The filtered cells were placed on 15 ml of 30% isosmotic Percoll solution (Amersham Biosciences) and centrifuged at 27,000 g for 20 minutes at 4° C. The cell layer near the surface, enriched with JG cells, was collected and washed. […] The resulting cDNA (40 ng) was used for quantitative real time PCR. Quantitative real time PCR Analysis of Gene Expression: TaqMan gene expression assays (Applied Biosystems, Foster City, Calif.; catalog No. 4331182) for FP (Mm004360055_m1), RENIN (Mm02342889_g1), TNFα (Mm00443258_m1), IL-1β (Mm00434228_m1), IL-12β (Mm01351787_m1), IL-4 (Mm00445259_m1,) IL-6 (Mm00446190_m1), IL-18 (Mm00434225_m1), iNOS (Mm01309902_m1), TGFβ (Mm00441724_m1), INFγ (Mm00801778_m1), IL-10 (Mm00439616_m1) were performed on an ABI Prism 7900 Sequence Detection System. […] An prostanoid agonist was administered as different concentrations and the expression of renin was monitored using real time RT-PCR. […]
# renin secretion = settings: Jensen et al., 1996; Fujino et al., 2004; cited from earlier work
# single WT JG cells = assay: Patch-clamp membrane capacitance of single JG cells; format: cell-based, mouse; settings: single WT JG cells in vitro, 1 μM Latanoprost
# From the text: as §1
# WT and FPKO mice = assay: Mean arterial blood pressure after PGF2α administration; format: in vivo, mouse
# Protocol: Mean Arterial Blood Pressure (BP) Measurements: The right internal jugular vein and left carotid artery of anesthetized mice were cannulated with PE-10 tubing. The arterial catheter was connected to a Capto SP844 pressure transducer, and BP was monitored continuously with a PowerLab/8SP system. Mice were injected via the right internal jugular vein with […] or PGF2α administration to exclude volume-mediated BP changes.
# Given that the lacZ gene was knocked into the endogenous FP receptor locus in the FP targeting allele, the receptor expression pattern was monitored by mapping β-galactosidase (β-gal) activity. Scattered activity of β-gal was detectable in the medial smooth muscle layer of renal small arteries in FP^+/− mice (FIG. 6A), but was not evident in FP^+/− mouse aorta nor in the atherosclerotic lesions of Ldlr^−/−/FP^−/− mice (FIGS. 6B-6G). To assess the systemic effect of PGF2α, WT and FPKO mice were sedated in order to measure blood pressure directly in the heart. PGF2α was administered and blood pressure was monitored. Once blood pressure returned to baseline, the next dose of PGF2α was administered (FIG. 6H). Four doses of PGF2α were tested: 10 μg/kg body weight, 30 μg/kg, 90 μg/kg and […].
compound,measurement,setting,value
"angiotensin II (DRVYIHPF; Angiotensin-2; UniProt P01019 25-32, looked up) [Ang II, Ang II peptide, a powerful vasoconstrictor]",hypertensive response to acute infusion of Ang II in FP KO mice,WT and FP knockout mice; FP KO mice,37.5±5.6
same,hypertensive response to acute infusion of Ang II in WT controls,WT and FP knockout mice; WT controls,20.3±4.7
CCC#CC[C@H](C)[C@H](O)C#C[C@@H]1[C@H]2C/C(=C/COCC(=O)O)C[C@H]2C[C@H]1O [Cicaprost],JG cell cAMP,JG cells,increase
same,expression of renin in JG cells from FPKO mice,"[1]; JG cells from FPKO mice, 20 hours incubation, various concentrations",stimulated
same,"effects as a renin secretagogue, WT compared with FP−/− mice",[1]; JG cells from WT vs FP−/− mice,similar
CCCCC[C@H](O)/C=C/[C@H]1[C@H](O)CC(=O)[C@@H]1C/C=C\CCCC(=O)O [PGE2],renin secretagogue activity,renin secretion,potent renin secretagogues
"CCCCC[C@H](O)/C=C/[C@@H]1[C@H]2C/C(=C/CCCC(=O)O)O[C@H]2C[C@H]1O [Prostacyclin (PGI2), Prostacyclin]",renin secretagogue activity,renin secretion,potent renin secretagogues
CC(C)OC(=O)CCC/C=C\C[C@@H]1[C@@H](CC[C@@H](O)CCc2ccccc2)[C@H](O)C[C@@H]1O [Latanoprost],JG cell cAMP,JG cells,failed to increase
same,change in membrane capacitance,single WT JG cells,no change
prostaglandin F2α [PGF2α],renin secretagogue activity,renin secretion,not
same,blood pressure after PGF2α administration in FPKO mice,"WT and FPKO mice; FPKO mice, 10, 30, 90, 270 μg/kg",not
same,blood pressure in FP−/− mice at the highest rate of infusion,"WT and FPKO mice; FP−/− mice, highest rate of infusion",rise in blood pressure
same,blood pressure after PGF2α administration in WT mice,"WT and FPKO mice; WT mice, 10, 30, 90, 270 μg/kg",increased; also recorded: dose dependent
